Measured values taken from ChEMBL document CHEMBL4483862, “Open-source discovery of chemical leads for next-generation chemoprotective antimalarials” (2018).

System: Plasmodium berghei
Assay: Luciferase/luciferin-expressing antifolate-resistant parasites were used to infect a culture of HepG2 cells that were pre-incubated with compounds. Infected hepatocytes emit light due to the luciferase reaction. Assay results are presented as the percent inhibition of light emission compared to control. […]
Format: functional
Details: sporozoite; for IC90: read-out: LUCIFERASE INFECTION ASSAY - IC90

Molecule `CN(C1=C(NC(=O)c2ccccc2)C(=O)c2ccccc2C1=O)C1CCS(=O)(=O)C1` (stereo not given) has an IC50 (PBLUC_HILL_SLOPE 12.4, PBLUC_R_SQUARED 0.0349, read-out: LUCIFERASE INFECTION ASSAY - IC50) of 9.32 µM and an IC90 of over 10 µM.
In the case of `c1cncc(-c2cnc3sc(NCc4ccncc4)nn23)c1`, the IC50 (PBLUC_HILL_SLOPE 12.5, PBLUC_R_SQUARED 0.401, read-out: LUCIFERASE INFECTION ASSAY - IC50) is reported as 10.1 µM and the IC90 is reported as over 10.7 µM.
`CC(C)S(=O)(=O)c1cscc1NC(=O)c1ccc(-c2cc(C(F)(F)F)nn2C)s1` was tested, and the IC50 (PBLUC_HILL_SLOPE 12.2, PBLUC_R_SQUARED 0.329, read-out: LUCIFERASE INFECTION ASSAY - IC50) was 6.55 µM and the IC90 was over 7.12 µM.
With `CSc1ncc(C(=O)N2CCN(c3ccnc4cc(Cl)ccc34)CC2)n1-c1ccc(F)cc1` the IC50 (PBLUC_HILL_SLOPE 12.3, PBLUC_R_SQUARED 0.334, read-out: LUCIFERASE INFECTION ASSAY - IC50) was 8.13 µM and the IC90 was 9.72 µM.
`Cc1cccc(NC(=O)CN2CCN(C(=O)c3csc(-c4ccc(C(C)C)cc4)n3)CC2)c1C` gave an IC50 (PBLUC_HILL_SLOPE 12.3, PBLUC_R_SQUARED 0.609, read-out: LUCIFERASE INFECTION ASSAY - IC50) of 3.19 µM and an IC90 of 3.81 µM.
In the case of `CCOC(=O)CC(=O)CSc1nnc(-c2ccccc2Cl)n1-c1ccccc1F`, the IC50 (PBLUC_HILL_SLOPE 12.3, PBLUC_R_SQUARED 0.795, read-out: LUCIFERASE INFECTION ASSAY - IC50) is reported as 0.0139 µM and the IC90 is reported as 0.0166 µM.
Molecule `CC(C#N)(NC(=O)CN1CCN(S(=O)(=O)c2ccc(Cl)s2)CC1)C1CC1` (stereo not given) has an IC50 (PBLUC_HILL_SLOPE 12.5, PBLUC_R_SQUARED 0.341, read-out: LUCIFERASE INFECTION ASSAY - IC50) of 9.26 µM and an IC90 of over 10 µM.
`c1ccc(CNc2nn3c(-c4ccccc4)cnc3s2)cc1` gave an IC50 (PBLUC_HILL_SLOPE 12.3, PBLUC_R_SQUARED 0.487, read-out: LUCIFERASE INFECTION ASSAY - IC50) of 3.47 µM and an IC90 of 4.14 µM.
`CC(=O)CSc1nnc(-c2ccc(C(C)(C)C)cc2)n1-c1ccc(Cl)cc1` gave an IC50 (PBLUC_HILL_SLOPE 12.6, PBLUC_R_SQUARED 0.0257, read-out: LUCIFERASE INFECTION ASSAY - IC50) of 7.82 µM and an IC90 of over 8.25 µM.
In the case of `CN(C)C(CNc1ncnc2sc(-c3ccccc3)cc12)c1ccco1` (stereo not given), the IC50 (PBLUC_HILL_SLOPE 12.3, PBLUC_R_SQUARED 0.199, read-out: LUCIFERASE INFECTION ASSAY - IC50) is reported as 9.76 µM and the IC90 is reported as over 10 µM.
`CC(C)CN1C(=O)N(Cc2ccccc2)C2(CCN(C3Cc4ccccc4C3)CC2)C1=O` showed an IC50 (PBLUC_HILL_SLOPE 12.6, PBLUC_R_SQUARED 0.313, read-out: LUCIFERASE INFECTION ASSAY - IC50) of 7.2 µM and an IC90 of over 7.65 µM.
Work on `CC(C)(C)c1ccccc1NC(=O)Nc1nc(C(N)CCc2ccccc2)cs1` (stereo not given) yielded an IC50 (PBLUC_HILL_SLOPE 12.3, PBLUC_R_SQUARED 0.125, read-out: LUCIFERASE INFECTION ASSAY - IC50) of 6.69 µM and an IC90 of 8 µM.
Molecule `Cc1ccccc1-n1c(SCC(=O)NC2CCCCC2)nc(O)cc1=O` has an IC50 (PBLUC_HILL_SLOPE 12.2, PBLUC_R_SQUARED 0.38, read-out: LUCIFERASE INFECTION ASSAY - IC50) of 2.81 µM and an IC90 of 3.36 µM.
Work on `Oc1ccc(Br)cc1/C=N/c1cc(C(F)(F)F)ccc1NCCc1ccccc1` yielded an IC50 (PBLUC_HILL_SLOPE 12.2, PBLUC_R_SQUARED 0.511, read-out: LUCIFERASE INFECTION ASSAY - IC50) of over 7.12 µM and an IC90 of over 7.12 µM.
`NC(=O)c1cccc(-c2cn3c(-c4cccc(OC(F)(F)F)c4)cnc3cn2)c1` showed an IC50 (PBLUC_HILL_SLOPE 12.4, PBLUC_R_SQUARED 0.473, read-out: LUCIFERASE INFECTION ASSAY - IC50) of 6.74 µM and an IC90 of 8.06 µM.
`COc1ccc(-c2cnc3cnc(-c4ccsc4)cn23)cn1` was tested, and the IC50 (PBLUC_HILL_SLOPE 12.3, PBLUC_R_SQUARED 0.383, read-out: LUCIFERASE INFECTION ASSAY - IC50) was 8.12 µM and the IC90 was 9.71 µM.
In the case of `c1ccc(-c2cc3c(SCc4cscn4)ncnc3s2)cc1`, the IC50 (PBLUC_HILL_SLOPE 12.2, PBLUC_R_SQUARED 0.61, read-out: LUCIFERASE INFECTION ASSAY - IC50) is reported as 3.1 µM and the IC90 is reported as 3.71 µM.
`Cc1c(C(=O)OC(C)C(=O)N2CCN(Cc3ccccc3)CC2)sc2nc3n(c(=O)c12)CCC3` (stereo not given) was tested, and the IC50 (PBLUC_HILL_SLOPE 12.6, PBLUC_R_SQUARED 0.201, read-out: LUCIFERASE INFECTION ASSAY - IC50) was 9 µM and the IC90 was over 10 µM.
`OCCNCCNCc1c(OCc2ccccc2Cl)ccc2ccccc12` gave an IC50 (PBLUC_HILL_SLOPE 12.5, PBLUC_R_SQUARED 0.654, read-out: LUCIFERASE INFECTION ASSAY - IC50) of 7.4 µM and an IC90 of over 8.57 µM.
`COc1ccc(C(CNC(=O)c2cc3c(C)nn(-c4ccc(Cl)cc4)c3s2)N(C)C)cc1` (stereo not given) was tested, and the IC50 (PBLUC_HILL_SLOPE 12.4, PBLUC_R_SQUARED 0.574, read-out: LUCIFERASE INFECTION ASSAY - IC50) was 3.47 µM and the IC90 was 4.14 µM.
With `CCCCNC(=O)c1c(NC(=O)c2ccc(C(=O)OC)cc2)nc2ccccn12` the IC50 (PBLUC_HILL_SLOPE 12.3, PBLUC_R_SQUARED 0.245, read-out: LUCIFERASE INFECTION ASSAY - IC50) was 7.76 µM and the IC90 was over 8.37 µM.
In the case of `NC(CCc1ccccc1)c1csc(NC(=O)Nc2ccccc2-c2ccccc2)n1` (stereo not given), the IC50 (PBLUC_HILL_SLOPE 12.2, PBLUC_R_SQUARED 0.388, read-out: LUCIFERASE INFECTION ASSAY - IC50) is reported as 5.88 µM and the IC90 is reported as 7.05 µM.
In the case of `CN(C)CCCNc1nc(-c2cccs2)nc2sc3c(c12)CCCC3`, the IC50 (PBLUC_HILL_SLOPE 12.2, PBLUC_R_SQUARED 0.29, read-out: LUCIFERASE INFECTION ASSAY - IC50) is reported as 3.37 µM and the IC90 is reported as 4.04 µM.
`Nc1ncc(-c2ccc(CO)cc2)cc1-c1ccc(F)c(Cl)c1` gave an IC50 (PBLUC_HILL_SLOPE 12.5, PBLUC_R_SQUARED 0.497, read-out: LUCIFERASE INFECTION ASSAY - IC50) of 9.14 µM and an IC90 of over 10 µM.
With `O=C(Nc1cccc(C(F)(F)F)c1)c1cccc(Cn2cc(C(F)(F)F)ccc2=O)c1` the IC50 (PBLUC_HILL_SLOPE 12.4, PBLUC_R_SQUARED 0.188, read-out: LUCIFERASE INFECTION ASSAY - IC50) was 6.37 µM and the IC90 was over 7.49 µM.
`CC(C)c1cc(NCc2ccccn2)n2ncc(-c3ccccc3)c2n1` was tested, and the IC50 (PBLUC_HILL_SLOPE 12.5, PBLUC_R_SQUARED 0.318, read-out: LUCIFERASE INFECTION ASSAY - IC50) was 3.3 µM and the IC90 was 3.94 µM.
In the case of `COc1ccc(Nc2nc(N)nc(CSc3nc4ccccc4o3)n2)cc1`, the IC50 (PBLUC_HILL_SLOPE 12.3, PBLUC_R_SQUARED 0.778, read-out: LUCIFERASE INFECTION ASSAY - IC50) is reported as 2.95 µM and the IC90 is reported as 3.53 µM.
Work on `CN(Cc1ccc2c(c1)OCCO2)C(=O)c1ccc(NC(=O)C23CC4CC(CC(C4)C2)C3)cc1` yielded an IC50 (PBLUC_HILL_SLOPE 12.4, PBLUC_R_SQUARED 0.0833, read-out: LUCIFERASE INFECTION ASSAY - IC50) of over 10 µM and an IC90 of over 10 µM.
Work on `CCN1C(=O)N(CCN(C)C)C(=O)C12CCN(Cc1ccc3c(c1)c1ccccc1n3CC)CC2` yielded an IC50 (PBLUC_HILL_SLOPE 12.4, PBLUC_R_SQUARED 0.445, read-out: LUCIFERASE INFECTION ASSAY - IC50) of 5.73 µM and an IC90 of 6.84 µM.
Work on `COc1cc(C2NCC(c3ccc(Cl)cc3Cl)c3c2[nH]c2ccccc32)ccc1OCC(C)C` (stereo not given) yielded an IC50 (PBLUC_HILL_SLOPE 12.5, PBLUC_R_SQUARED 0.54, read-out: LUCIFERASE INFECTION ASSAY - IC50) of 3.15 µM and an IC90 of 3.76 µM.
`Cc1cc(S(=O)(=O)Oc2ccccc2C(N)=O)ccc1-n1cnnn1` gave an IC50 (PBLUC_HILL_SLOPE 12.6, PBLUC_R_SQUARED 0.0652, read-out: LUCIFERASE INFECTION ASSAY - IC50) of 9.07 µM and an IC90 of over 10 µM.
`Cc1ccc2[nH]c(-c3cccs3)c(CCC(=O)N(C)C3CCS(=O)(=O)C3)c2c1` (stereo not given) showed an IC50 (PBLUC_HILL_SLOPE 12.5, PBLUC_R_SQUARED 0.681, read-out: LUCIFERASE INFECTION ASSAY - IC50) of 3.23 µM and an IC90 of 3.85 µM.
For `Cc1cc(=O)nc(N(C(=O)Nc2ccccc2)c2cccc(C(F)(F)F)c2)n1C(=O)Nc1ccccc1`, the IC50 (PBLUC_HILL_SLOPE 12.5, PBLUC_R_SQUARED 0.105, read-out: LUCIFERASE INFECTION ASSAY - IC50) was 9.27 µM and the IC90 was over 10 µM.
Work on `CCCNC(=O)CN1CCN(c2nc(-c3cccs3)nc3sc(C)c(C)c23)CC1` yielded an IC50 (PBLUC_HILL_SLOPE 12.5, PBLUC_R_SQUARED 0.18, read-out: LUCIFERASE INFECTION ASSAY - IC50) of 9.45 µM and an IC90 of over 10 µM.
`Cc1n[nH]c(C(=O)NCc2ccc(OC(C)C)cc2)c1Br` gave an IC50 (PBLUC_HILL_SLOPE 12.5, PBLUC_R_SQUARED 0.288, read-out: LUCIFERASE INFECTION ASSAY - IC50) of 8.82 µM and an IC90 of over 10 µM.
`O=c1nc(CCc2ccc3c(c2)OCCO3)[nH]c2ccccc12` gave an IC50 (PBLUC_HILL_SLOPE 12.5, PBLUC_R_SQUARED 0.668, read-out: LUCIFERASE INFECTION ASSAY - IC50) of 3.11 µM and an IC90 of 3.7 µM.
Molecule `NC(=O)c1ccc(-c2cc(-c3ccc(F)c(Cl)c3)cnc2N)cc1` has an IC50 (PBLUC_HILL_SLOPE 12.5, PBLUC_R_SQUARED 0.242, read-out: LUCIFERASE INFECTION ASSAY - IC50) of 3.7 µM and an IC90 of 4.41 µM.
With `NC(=O)c1ccsc1NC(=O)c1cc(-c2ccccc2)nn1-c1ccccc1` the IC50 (PBLUC_HILL_SLOPE 12.3, PBLUC_R_SQUARED 0.697, read-out: LUCIFERASE INFECTION ASSAY - IC50) was 3.08 µM and the IC90 was 3.68 µM.
With `Cc1nc(NCc2ccc3c(c2)OCO3)c2c3c(sc2n1)CCCC3` the IC50 (PBLUC_HILL_SLOPE 12.4, PBLUC_R_SQUARED 0.761, read-out: LUCIFERASE INFECTION ASSAY - IC50) was 8.99 µM and the IC90 was over 10 µM.
`COc1ccc(-c2nc(CN(c3ccccc3)S(=O)(=O)c3ccccc3)co2)cc1` gave an IC50 (PBLUC_HILL_SLOPE 12.4, PBLUC_R_SQUARED 0.25, read-out: LUCIFERASE INFECTION ASSAY - IC50) of over 10 µM and an IC90 of over 10 µM.
